According to paper PMC4109680, “Identification and Preclinical Pharmacology of the γ-Secretase Modulator BMS-869780” (International Journal of Alzheimer's Disease, 2014):

Key:
Aβ1-x (H4-APPsw) = experiment: Aβ1-42, Aβ1-40 and Aβ1-x ELISA in H4-APPsw cultures at high concentrations; format: cell-based, human; settings: overnight
Method: IC50 determinations for Aβ1-42 and Aβ1-40 in H4-APPsw cultures in 384-well format were determined using homogeneous time-resolved fluorescence immunoassays as previously described. The principle of these assays is illustrated in Figures 1(c) and 1(d). In other experiments using H4-APPsw cultures, Aβ was quantified by ELISA; for Aβ1-42 the combination of monoclonal antibodies was 26D6 and 565-HRP; for Aβ1-40 it was TSD and 26D6-HRP, and for Aβ1-x it was 4G8 and 26D6-HRP. In some experiments a novel 4-plex Aβ electrochemiluminescence immunoassay was used (Mesoscale Discovery catalog number N45ZA-1). […] For Aβ in transiently transfected PS1/PS2 dKO fibroblasts, Aβ1-42 was quantified using an ELISA kit (WACO), and Aβ1-40 was quantified by ELISA as described above for H4-APPsw cultures. […] For the rat and mouse experiments illustrated in Figures 7 and 8, brain samples were prepared by solid phase extraction, and endogenous rat brain Aβ1-42 and Aβ1-40 were quantified by ELISA as previously described for wild type mice. […] For brain extracts made in 0.2% diethylamine, Aβ1-42, Aβ1-40, Aβ1-38, and Aβ1-37 concentrations in brain and cell culture samples were determined by fitting the results of immunoassays against calibration curves derived from a range of dilutions of the corresponding synthetic peptides on each assay plate using a quadratic curve fit (Graphpad Prizm 5.0). […]

APP-CTF (H4-APPsw) = experiment: Western blot of APP-CTFα and APP-CTFβ in H4-APPsw cell lysates; format: cell-based, human; settings: overnight; for increase in APP-CTFα: BMS-869780 100-3000 nM averaged across doses, BMS-299897 30-300 nM; for APP-CTFβ levels: high concentrations
Method: For western blotting of APP-CTF in cell lysates, H4-APPsw cell cultures in T-75 flasks were rinsed with DPBS, harvested, isolated by centrifugation, and stored at −80°C until needed. Cells were suspended in SDS sample buffer (20,000 cells/μL), boiled for 10 min, and centrifuged 3000 ×g for 5 min. Total protein content was determined using an assay kit (EZQ, Invitrogen cat number R33200). Proteins were separated by electrophoresis on Bis-Tris 16% polyacrylamide gels and transferred to nitrocellulose filters. APP-CTFβ was detected using 26D6-HRP, and APP-CTFα was detected using ct695 polyclonal (Invitrogen, cat number 51-2700) and secondary goat anti-rabbit horseradish peroxidase conjugate (Zymed, catalog number 62-6120). Chemiluminescence images were captured and quantified using an imaging station (Fuji model number LAS-3000). The ct695 western blots also show APP-CTFβ, which migrates as a fainter band above APP-CTFα under these conditions. To confirm the consistency of sample loading, the APP-CTF western blots were reprobed for glyceraldehyde-3-phosphate dehydrogenase (GAPDH) using monoclonal 1D4 (Enzo Life Sciences, cat number CSA-335).
Figure 4 BMS-869780 had minimal effect on APP-CTF accumulation in vitro. H4-APPsw cell cultures were treated overnight with the indicated concentrations of BMS-869780, BMS-299897 or vehicle (0.1% DMSO). (a) Cells were harvested and analyzed by western blotting for APP-CTFα, APP-CTFβ, and GAPDH. Lane 1; culture treated with vehicle 0.1% DMSO. Lanes 2–5; cultures treated with BMS-869780 at 100 nM, 300 nM, 1000 nM, or 3000 nM, respectively. Lanes 6–8; cultures treated with BMS-299897 at 30 nM, 100 nM, or 300 nM, respectively. (b) Levels of Aβ1-42 (red; left Y-axis), Aβ1-40 (green; right Y-axis), and Aβ1-x (grey; right Y-axis) were quantified.

| SMILES | overall levels of Aβ1-x (Aβ1-x (H4-APPsw)) | increase in APP-CTFα (APP-CTF (H4-APPsw)) [fold] | APP-CTFβ levels (APP-CTF (H4-APPsw)) |
| --- | --- | --- | --- |
| C[C@H](c1ccc(F)cc1CCCC(=O)O)N(c1cc(F)ccc1F)S(=O)(=O)c1ccc(Cl)cc1 [BMS-299897, reference compound] | dramatically reduced all Aβ1-x peptides | 8 | not affected |
| COc1cc(Nc2nc3n(n2)CCCC[C@H]3c2ccc(F)cc2)ccc1-n1cnc(Cl)c1 [BMS-869780] | without any decrease in the overall levels of Aβ1-x | 1.4 | not affected |
